The nature of series [1]: skin tolerability on tested subjects after topical application. It counts as in vivo, human.
Series [2] relates to human skin warts. Briefly: topical treatment of human skin warts. As to conditions: topical application. Type of series: in vivo. Here is the method:
Initial steps involved extracting Tecoma stans leaves with methanol or ethanol alcohol. Then, the extract was obtained via evaporating the alcohol and re-suspending the dry matter in pure DMSO (dimethylsulphoxide) at a concentration of 20 mg/mL DMSO. […] As disclosed herein, 14 compounds have been isolated from dry leaves of Tecoma stans, four of which are known for their antidiabetic effect and ability to reduce the glycemic index. After identifying the 14 compounds in the methanolic extract from the dry leaves, each compound was independently tested on human skin warts. […] Therefore, corosolic acid was mixed with its two related compounds, namely oleanolic acid (FIG. 1E) and ursolic acid (FIG. 1F), isolated from the same extract. Compositions containing a mixture of these three compounds were prepared by mixing the compounds in an ointment at a concentration of 1 mg/gm of each compound per a total weight of the ointment, emulsifying the compounds in a lotion base at a concentration of 0.1 mg/mL of each compound per a total volume of the lotion, or suspending three compounds together in DMSO at a concentration of 1 mg/mL of each compound per a total volume of DMSO. The compositions were applied topically twice a day to the desired skin area as indicated in each case (see FIGS. 3[…]).

Take `CC1(C)CC[C@]2(C(=O)O)CC[C@]3(C)C(=CC[C@@H]4[C@@]5(C)CC[C@H](O)C(C)(C)[C@@H]5CC[C@]43C)[C@@H]2C1` [oleanolic acid]: the “harmlessness on humans / skin irritation” value in series [1] is “harmless on humans, and cause no skin irritations”.

On to `C[C@H]1[C@H](C)CC[C@]2(C(=O)O)CC[C@]3(C)C(=CC[C@@H]4[C@@]5(C)C[C@@H](O)[C@H](O)C(C)(C)[C@@H]5CC[C@]43C)[C@H]12` [corosolic acid, (2α,3β)-2,3-dihydroxyurs-12-en-28-oic acid], for which, in series [1], the “harmlessness on humans / skin irritation” value was “harmless on humans, and cause no skin irritations”. Besides, in series [2], the “curing effect on skin warts” value was “minor curing effect”.

As to `C[C@H]1[C@H](C)CC[C@]2(C(=O)O)CC[C@]3(C)C(=CC[C@@H]4[C@@]5(C)CC[C@H](O)C(C)(C)[C@@H]5CC[C@]43C)[C@H]12` [ursolic acid, 3β-Hydroxy-12-ursen-28-ic acid], the “harmlessness on humans / skin irritation” value in series [1] was “harmless on humans, and cause no skin irritations”.
